Assay [1] deals with ISC-enriched organoids. In words: Primary screen, 384-well 2.5-D organoid differentiation (ENR+CD, 6 days): basal lysozyme secretion (LYZ.NS). The note with it: for SSMD.LYZ.NS: strictly standardized mean difference; for SSMD.LYZ.NS / Dose.FC.LYZ.NS: primary screen; for Dose.FC.LYZ.NS: FC vs plate median; for Z.LYZ.NS: standard z score of FC. In kind it is cell-based, murine. An excerpt: (§1) High-throughput screening.

The subject of assay [2] is ISC-enriched organoids. In words: Primary screen, 384-well 2.5-D organoid differentiation (ENR+CD, 6 days): carbachol-induced lysozyme secretion (LYZ.S). The note with it: primary screen; for Z.LYZ.S: standard z score; for SSMD.LYZ.S: strictly standardized mean difference; for Dose.FC.LYZ.S: FC vs plate median. In kind it is cell-based, murine.
Description: as §1

Assay [3] relates to ISC-enriched organoids. In words: Primary screen, 384-well 2.5-D organoid differentiation (ENR+CD, 6 days, Target Selective Inhibitor Library, vs whole-plate median): ATP (CellTiter-Glo 3D, CTG). The conditions noted are these: for SSMD.CTG: strictly standardized mean difference; for Dose.FC.CTG: FC vs plate median. On the technique in general: Cellular ATP, detected with luciferase, serves as a proxy for viable cell number.

[4] abbreviates: 1st of the 4 dose lines of the treatment (dose not given).
The mark [5] stands for this setting: 2nd of the 4 dose lines of the treatment (dose not given).
The mark [6] stands for this setting: 3rd of the 4 dose lines of the treatment (dose not given).
Setting [7] is: 4th of the 4 dose lines of the treatment (dose not given).
The mark [8] stands for this setting: Dose 0.08 uM, primary screen, standard z score.
Where [9] appears, read: Dose 0.40 uM, primary screen, standard z score.
Setting [10] is: Dose 2.00 uM, primary screen, standard z score.
[11] abbreviates: primary screen, 1st of the 4 dose lines of the treatment (dose not given).
The mark [12] stands for this setting: primary screen, 2nd of the 4 dose lines of the treatment (dose not given).
[13] abbreviates: primary screen, 3rd of the 4 dose lines of the treatment (dose not given).
Setting [14] is: primary screen, 4th of the 4 dose lines of the treatment (dose not given).
The mark [15] stands for this setting: Dose 10.00 uM, standard z score of FC.
The mark [16] stands for this setting: Dose 0.08 uM, standard z score of FC.
Where [17] appears, read: Dose 0.40 uM, standard z score of FC.
[18] abbreviates: Dose 2.00 uM, standard z score of FC.

Counter-ions that a name gives are not always drawn.

`CC12CC3CC(C)(C1)CC(N)(C3)C2` [Memantine HCl]: the SSMD.LYZ.NS is 0.489 in assay [1] (setting [4]), 0.038 in assay [1] (setting [5]), 0.745 in assay [1] (setting [6]) and −0.407 in assay [1] (setting [7]). Besides, the Z.LYZ.S in assay [2] (setting [4]) is recorded as 0.586; in assay [2] (setting [5]), 0.112; in assay [2] (setting [6]), 0.328; in assay [2] (setting [7]) it was −0.138. Moreover, the SSMD.LYZ.S in assay [2] (setting [4]) is given as 0.420; in assay [2] (setting [5]) it was 0.134; in assay [2] (setting [6]), 0.292; in assay [2] (setting [7]) it was −0.142. Further, the Z.CTG in assay [3] (setting [8]) was 0.199; in assay [3] (setting [9]), 0.173; in assay [3] (setting [10]), −0.018; in assay [3] (Dose 10.00 uM, primary screen, standard z score), 0.184. The SSMD.CTG in assay [3] (setting [11]) is given as 0.214; in assay [3] (setting [12]), 0.219; in assay [3] (setting [13]), −0.016; in assay [3] (setting [14]) it was 0.145.

On to `CN(Cc1cnc2nc(N)nc(N)c2n1)c1ccc(C(=O)N[C@@H](CCC(=O)O)C(=O)O)cc1` [Methotrexate], for which the SSMD.LYZ.NS is recorded as −0.745 in assay [1] (setting [4]), −0.349 in assay [1] (setting [5]), −1.130 in assay [1] (setting [6]) and −0.527 in assay [1] (setting [7]). The Z.LYZ.S in assay [2] (setting [4]) is given as −1.029; in assay [2] (setting [5]), −0.831; in assay [2] (setting [6]), −1.143; in assay [2] (setting [7]) it was −1.007. Further, the SSMD.LYZ.S in assay [2] (setting [4]) is −0.943; in assay [2] (setting [5]) it was −0.627; in assay [2] (setting [6]), −0.866; in assay [2] (setting [7]) it was −0.718. In addition, the Z.CTG in assay [3] (setting [8]) is given as −1.469; in assay [3] (setting [9]) it was −1.724; in assay [3] (setting [10]), −1.674; in assay [3] (setting [15]), −1.534. Besides, the SSMD.CTG is reported as −1.489 in assay [3] (setting [11]), −1.028 in assay [3] (setting [12]), −1.982 in assay [3] (setting [13]) and −1.176 in assay [3] (setting [14]).

Turning to `Nc1nc(CC(=O)Nc2ccc(CCNC[C@H](O)c3ccccc3)cc2)cs1` [Mirabegron], the SSMD.LYZ.NS in assay [1] (setting [4]) was 1.039; in assay [1] (setting [5]), −0.280; in assay [1] (setting [6]), −0.346; in assay [1] (setting [7]), 0.113. Also, the Z.LYZ.S in assay [2] (setting [4]) is listed as 0.958; in assay [2] (setting [5]), −0.103; in assay [2] (setting [6]), −0.317; in assay [2] (setting [7]), −0.065. The SSMD.LYZ.S is reported as 0.863 in assay [2] (setting [4]), −0.090 in assay [2] (setting [5]), −0.363 in assay [2] (setting [6]) and −0.064 in assay [2] (setting [7]). Also, the Z.CTG in assay [3] (setting [16]) is reported as 0.069; in assay [3] (setting [17]), −0.801; in assay [3] (setting [18]), 0.046; in assay [3] (setting [15]) it was −0.123. For the same compound, the SSMD.CTG in assay [3] (setting [11]) is reported as 0.101; in assay [3] (setting [12]), −0.380; in assay [3] (setting [13]), 0.068; in assay [3] (setting [14]), −0.150.

Turning to `O=C(NCCN1CCOCC1)c1ccc(Cl)cc1` [Moclobemide (Ro 111163)], the Dose.FC.LYZ.NS in assay [1] (Dose 0.08 uM) is 0.075 log 2 fold change; in assay [1] (Dose 0.40 uM), 0.121 log 2 fold change; in assay [1] (Dose 2.00 uM) it was 0.001 log 2 fold change; in assay [1] (Dose 10.00 uM), −0.028 log 2 fold change. The Z.LYZ.NS is 0.654 in assay [1] (Dose 0.08 uM), 1.055 in assay [1] (Dose 0.40 uM), 0.011 in assay [1] (Dose 2.00 uM) and −0.243 in assay [1] (Dose 10.00 uM). In addition, the SSMD.LYZ.NS is 0.302 in assay [1] (setting [4]), 0.415 in assay [1] (setting [5]), 0.007 in assay [1] (setting [6]) and −0.219 in assay [1] (setting [7]). The Dose.FC.LYZ.S in assay [2] (Dose 0.08 uM) was 0.147 log 2 fold change; in assay [2] (Dose 0.40 uM), 0.094 log 2 fold change; in assay [2] (Dose 2.00 uM), 0.012 log 2 fold change; in assay [2] (Dose 10.00 uM) it was 0.019 log 2 fold change. For the same compound, the Z.LYZ.S in assay [2] (setting [4]) turned out to be 0.953; in assay [2] (setting [5]), 0.607; in assay [2] (setting [6]), 0.078; in assay [2] (setting [7]) it was 0.123. Besides, the SSMD.LYZ.S is 0.495 in assay [2] (setting [4]), 0.348 in assay [2] (setting [5]), 0.056 in assay [2] (setting [6]) and 0.135 in assay [2] (setting [7]). Further, the Dose.FC.CTG was 0.146 log 2 fold change in assay [3] (Dose 0.08 uM, primary screen); 0.106 log 2 fold change in assay [3] (Dose 0.40 uM, primary screen); 0.116 log 2 fold change in assay [3] (Dose 2.00 uM, primary screen); 0.042 log 2 fold change in assay [3] (Dose 10.00 uM, primary screen). Besides, the Z.CTG amounted to 0.348 in assay [3] (setting [16]), 0.252 in assay [3] (setting [17]), 0.276 in assay [3] (setting [18]) and 0.100 in assay [3] (setting [15]). In addition, the SSMD.CTG in assay [3] (setting [11]) worked out at 0.257; in assay [3] (setting [12]), 0.148; in assay [3] (setting [13]), 0.227; in assay [3] (setting [14]), 0.115.

On to `Cc1ccccc1C(=O)Nc1ccc(C(=O)N2CCCC(N(C)C)c3ccccc32)cc1` (stereo not shown) [Mozavaptan], for which the SSMD.LYZ.NS is recorded as 0.283 in assay [1] (setting [4]), −0.203 in assay [1] (setting [5]), 0.340 in assay [1] (setting [6]) and −1.544 in assay [1] (setting [7]). Moreover, the Z.LYZ.S in assay [2] (setting [4]) is reported as 0.557; in assay [2] (setting [5]), 1.068; in assay [2] (setting [6]), 0.688; in assay [2] (setting [7]) it was −1.745. In addition, the SSMD.LYZ.S was 0.266 in assay [2] (setting [4]), 0.560 in assay [2] (setting [5]), 0.775 in assay [2] (setting [6]) and −1.480 in assay [2] (setting [7]). Further, the Z.CTG is 0.765 in assay [3] (setting [16]), 0.562 in assay [3] (setting [17]), 0.259 in assay [3] (setting [18]) and −0.803 in assay [3] (setting [15]). In addition, the SSMD.CTG in assay [3] (setting [11]) is 0.521; in assay [3] (setting [12]) it was 0.427; in assay [3] (setting [13]), 0.274; in assay [3] (setting [14]), −0.812.

For `FC(F)(F)c1ccc(/C=C/c2nc(COc3ccc(CCCCn4ccnn4)cc3)co2)cc1` [Mubritinib (TAK 165)], the Dose.FC.LYZ.NS is recorded as −0.057 log 2 fold change in assay [1] (Dose 0.08 uM), −0.194 log 2 fold change in assay [1] (Dose 0.40 uM), −0.224 log 2 fold change in assay [1] (Dose 2.00 uM) and −0.240 log 2 fold change in assay [1] (Dose 10.00 uM). The Z.LYZ.NS in assay [1] (Dose 0.08 uM) was −0.500; in assay [1] (Dose 0.40 uM), −1.687; in assay [1] (Dose 2.00 uM) it was −1.950; in assay [1] (Dose 10.00 uM), −2.092. Also, the Dose.FC.LYZ.S is −0.119 log 2 fold change in assay [2] (Dose 0.08 uM), −0.154 log 2 fold change in assay [2] (Dose 0.40 uM), −0.299 log 2 fold change in assay [2] (Dose 2.00 uM) and −0.294 log 2 fold change in assay [2] (Dose 10.00 uM). For the same compound, the Dose.FC.CTG is listed as −0.524 log 2 fold change in assay [3] (Dose 0.08 uM, primary screen); −0.340 log 2 fold change in assay [3] (Dose 0.40 uM, primary screen); −0.530 log 2 fold change in assay [3] (Dose 2.00 uM, primary screen); −0.519 log 2 fold change in assay [3] (Dose 10.00 uM, primary screen). The Z.CTG is listed as −1.252 in assay [3] (setting [16]), −0.812 in assay [3] (setting [17]), −1.265 in assay [3] (setting [18]) and −1.240 in assay [3] (setting [15]).

(Values after US20230398130A1, “METHODS AND COMPOSITIONS FOR DIFFERENTIATING STEM CELLS” (Massachusetts Institute of Technology, priority 2020, published 2023).)
